Patent US20050019746A1, “Apoptosis-related kinase/GPCRs” (EiRx Therapeutics Limited, priority 2003, published 2005)

Legend:
Type in all cases: cell-based, human
PC3 cells [1] = assay: Cell Migration Assay (Chemicon ECM550, Boyden Chamber); details: 48 hours post siRNA transfection, 24-hour migration, compared to missense and UPA controls
Description: Cells are seeded into a 6-well plate and allowed to adhere overnight at 37° C. in a humidified atmosphere containing 5% CO2 in air. Cells are next transfected with siRNA oligonucleotides, at a concentration of 2 μg/ml, against the genes of interest, as described in detail in Example 5. Transfections are continued for 4 hrs after which the transfection solution is removed and cells are refed with fresh medium and allowed incubate overnight. Transfected cells are next harvested for seeding into migration assay as described below.
The Chemicon Cell Migration Assay (ECM550) is used to quantify the number of PC3 cells that successfully migrate across a Boyden Chamber towards a chemoattractant over a 24-hour incubation period. Assessment of PC3 cell migration is performed routinely 48 hours post siRNA Transfection. The effect of reducing the expression of genes of interest is compared to that of a missense control oligomer and to the influence of UPA knockdown, which is reported in the literature to decrease PC3 cell migration. The Migration Assay is performed as per manufacturers inductions. Results are illustrated in FIGS. 39 to 41.
Cells were plated and transfected with the indicated siRNA as described above. Migration of PC3 cells was tracked using a fluorescent dye. Consequently increases in fluorescent units correlates positively with increased migration.

PC3 cells [2] = assay: Anchorage Independence/Soft Agar Assay, PC3; details: soft agar, experiment n = 1
Description: (§1) The Anchorage Independence/Soft Agar Assay allows assessment of the influence of modulation of gene expression on clonal tumouroid formation by observing and quantifying tumouroid morphology and colony number over an extended period of logarithmic growth thereby ascertaining any cell death is induced.
(§2) Cells are seeded into a 6-well plate and allowed to adhere overnight at 37° C. in a humidified atmosphere containing 5% CO2 in air. Cells are next transfected with siRNA Oligomers, at a concentration of 2 μg, against the genes of interest. Transfections continued for 4 hrs after which the transfection solution is removed and cells are refed with fresh medium and allowed incubate overnight. Transfected cells are next harvested for seeding into soft agar assay as described below. […] Colonies formed are subsequently stained with Crystal Violet, their morphology is assessed and colonies formed are enumerated at a 4× magnification.
(§3) The cytotoxic effect of each gene is determined by a reduction in colony number compared to our MS control, but any influence on the morphology of the colony is also noted.
(§4) Examples of genes with a cytotoxic effect on knockdown as detected by the soft agar assay are outlined in Table 14. […]

A549 cells = assay: Anchorage Independence/Soft Agar Assay, A549; design: PERCENTAGE SURVIVAL RELATIVE TO MS, A549, n = 2: tested at 2 µg; details: soft agar
Description: as §1
(§5) Cells are seeded into a 6-well plate and allowed to adhere overnight at 37° C. in a humidified atmosphere containing 5% CO2 in air. Cells are next transfected with siRNA Oligomers, at a concentration of 2 μg, against the genes of interest. Transfections continued for 4 hrs after which the transfection solution is removed and cells are refed with fresh medium and allowed incubate overnight. Transfected cells are next harvested for seeding into soft agar assay as described below. Cells are seeded at 5×10^4 cells per well of a 6 well plate and incubated over a 12/14-Day period whilst proliferating in a 0.05% Agar/Medium cell suspension at 37° C. in a humidified atmosphere containing 5% CO2 in air. Colonies formed are subsequently stained with Crystal Violet, their morphology is assessed and colonies formed are enumerated at a 4× magnification.
as §3
(§6) Examples of genes with a cytotoxic effect on knockdown as detected by the soft agar assay are outlined in Table 14. Table 14 gives the percentage survival of the indicated cell lines post transfection with siRNA oligomers to target genes relative to that of the missense in an anchorage independent assay. As an internal reference, the known survival gene Survivin was also targeted by siRNA. This table illustrates the magnitude of cytotoxicity induced by the knockdown of each target gene compared to the MS control i.e. the number of colonies formed are stained with Crystal violet and enumerated visually as discussed.

cancer cell lines = assay: Anchorage Independence/Soft Agar Assay, summary over the cell lines; details: 14-day anchorage independent assay, over the cell lines examined
Description: as §1, §5, §3
As an internal reference, the known survival gene ‘Survivin’ was also targeted by siRNA.

MCF7 cells = assay: Anchorage Independence/Soft Agar Assay, MCF7; design: PERCENTAGE SURVIVAL RELATIVE TO MS, MCF7, n = 2: tested at 2 µg; details: soft agar
Description: as §1, §5, §3, §6

HCT15 cells = assay: Anchorage Independence/Soft Agar Assay, HCT15; design: PERCENTAGE SURVIVAL RELATIVE TO MS, HCT15, n = 2: tested at 2 µg; PERCENTAGE SURVIVAL RELATIVE TO MS, HCT15, n = 1: tested at 2 µg siRNA; details: soft agar
Description: as §1, §5, §3, §6

U251 cells = assay: Anchorage Independence/Soft Agar Assay, U251; details: soft agar, experiment n = 1
Description: as §1, §2, §3, §4

## siRNA CNK/PRK: sense UCGUAGUGCUUGUACUUACtt, antisense GUAAGUACAAGCACUACGAtt (sense UCGUAGUGCUUGUACUUACTT; antisense GUAAGUACAAGCACUACGATT; chemistry not given here)
PC3 cells [1]
  migration of PC3 cells: increases the ability of cancer cells to migrate
PC3 cells [2]
  PERCENTAGE SURVIVAL RELATIVE TO MS, PC3, n = 1: 10%
A549 cells; experiment n = 1
  PERCENTAGE SURVIVAL RELATIVE TO MS, A549, n = 1: 91%
A549 cells; experiment n = 2
  PERCENTAGE SURVIVAL RELATIVE TO MS, A549, n = 2: 39.6%
Cancer cell lines
  cell death / apoptosis in the soft agar assay: induced toxicity consistently in the HCT15 cell line
MCF7 cells; experiment n = 1
  PERCENTAGE SURVIVAL RELATIVE TO MS, MCF7, n = 1: 98.2%
MCF7 cells; experiment n = 2
  PERCENTAGE SURVIVAL RELATIVE TO MS, MCF7, n = 2: 66.3%
HCT15 cells; experiment n = 1
  PERCENTAGE SURVIVAL RELATIVE TO MS, HCT15, n = 1: 38.6%
HCT15 cells; experiment n = 2
  PERCENTAGE SURVIVAL RELATIVE TO MS, HCT15, n = 2: 72.3%
U251 cells
  PERCENTAGE SURVIVAL RELATIVE TO MS, U251, n = 1: 13.5%
